Results from patent US20260022142A1, “MACROCYCLIC IMMUNOMODULATORS” (Bristol-Myers Squibb Company, priority 2022, published 2026).
Bridge positions count the residues as written; N and C are the ends. Square brackets hold non-standard residues; d marks the D form. Peptide text beside a SMILES is read from it. * marks the point of attachment. ξ: configuration not given here. Bip = N[C@@H](Cc1ccc(-c2ccccc2)cc1)C(=O)O; Phe(3-Me) = Cc1cccc(C[C@H](N)C(=O)O)c1; Cha = N[C@@H](CC1CCCCC1)C(=O)O; Cit = NC(=O)NCCC[C@H](N)C(=O)O; Thr(3ξ) = CC(O)[C@H](N)C(=O)O; 12Ado = NCCCCCCCCCCCC(=O)O; hSer = N[C@@H](CCO)C(=O)O; Carboxymethyl = O=C(O)C*; Orn = NCCC[C@H](N)C(=O)O; Aun = NCCCCCCCCCCC(=O)O; Dab = NCC[C@H](N)C(=O)O; Dap = NC[C@H](N)C(=O)O; AEEA = NCCOCCOCC(=O)O; Ac3c = NC1(C(=O)O)CC1

What follows are compounds tested against T1, PD-1/PD-L1 interaction (PE-labeled human PD-L1-Ig binding to Jurkat cell line over-expressing human PD-1) (Homo sapiens, UniProt Q15116) (assay: Jurkat-PD-1 Cell Binding High-Content Screening Assay (CBA)). Details: Jurkat cell line over-expressing human PD-1; PE-labeled PD-L1-Ig 20 nM final; read-out: Jurkat hPD1-PDL1 IC50.
T1 construct: expressed in transfected cells; host or cells: Jurkat
T1 sequence (Q15116 25-288): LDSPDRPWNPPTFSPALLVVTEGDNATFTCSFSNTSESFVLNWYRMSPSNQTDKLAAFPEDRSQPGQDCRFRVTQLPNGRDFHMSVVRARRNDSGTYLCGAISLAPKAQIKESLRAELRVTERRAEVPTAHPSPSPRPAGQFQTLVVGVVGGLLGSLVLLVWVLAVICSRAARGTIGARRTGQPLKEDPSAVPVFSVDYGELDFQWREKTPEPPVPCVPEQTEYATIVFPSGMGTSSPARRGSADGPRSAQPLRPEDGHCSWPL
Format: cell-based
Summary of the method: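 First, compound is added to PD-1-expressing Jurkat cells in serum-containing DMEM and left 2 h at 37° C. Next, PE-conjugated PD-L1-Ig is introduced at 20 nM final concentration for 1 hour. Finally, cells are fixed in 4% paraformaldehyde with Hoechst 33342, washed and imaged.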

Row | Structure (SMILES) | IC50
1 | Cc1cccc(C[C@@H]2NC(=O)[C@H](CC(=O)O)NC(=O)[C@H](Cc3ccc(OCC(=O)O)cc3)NC(=O)[C@H](Cc3ccc(OCC(=O)O)cc3)NC(=O)CSC[C@@H](C(=O)NC3(C(=O)NCCOCCOCC(=O)NCCCCCCCCCCC(=O)O)CC3)NC(=O)[C@H](CCCN)NC(=O)[C@H](C(C)C)NC(=O)[C@H](CC3CCCCC3)NC(=O)[C@H](CCN)NC(=O)[C@@H](CC(C)C)NC(=O)[C@H](CCCN)NC(=O)[C@H](Cc3ccc(O)cc3)NC(=O)[C@H](Cc3ccc(-c4ccccc4)cc3)NC(=O)[C@H](Cc3ccc(O)cc3)NC2=O)c1 [Compound 2078] ({CH2CO}-Y(Carboxymethyl)Y(Carboxymethyl)D[Phe(3-Me)]Y[Bip]Y[Orn][dL][Dab][Cha]V[Orn]C[Ac3c][AEEA][Aun]-OH; thioether N-14) | 3.9 nM
2 | CC(C)C[C@@H]1NC(=O)[C@H](Cc2c[nH]c3ccccc23)NC(=O)[C@H](CC(=O)O)NC(=O)[C@H](Cc2ccc(OCC(=O)O)cc2)NC(=O)[C@H](C(C)O)NC(=O)CSC[C@@H](C(=O)N[C@@H](CCN)C(=O)NCCCCCCCCCCC(=O)O)NC(=O)[C@H](CCCN)NC(=O)[C@H](C(C)O)NC(=O)[C@H](CC2CCCCC2)NC(=O)[C@H](CCN)NC(=O)[C@@H](CC(C)C)NC(=O)[C@H](CCCN)NC(=O)[C@H](Cc2ccc(O)cc2)NC(=O)[C@H](Cc2ccc(-c3ccccc3)cc2)NC1=O (stereo partly drawn) [Compound 3684] ({CH2CO}-[Thr(3ξ)]Y(Carboxymethyl)DWL[Bip]Y[Orn][dL][Dab][Cha][Thr(3ξ)][Orn]C[Dab][Aun]-OH; thioether N-14) | 77.1 nM

Now from value to compound:

Row | IC50 | Structure (SMILES)
3 | 37.6 nM | Cc1cccc(C[C@@H]2NC(=O)[C@H](CC(=O)O)NC(=O)[C@H](Cc3ccc(OCC(=O)O)cc3)NC(=O)[C@H](CN)NC(=O)CSC[C@@H](C(=O)N[C@@H](CCCN)C(=O)NCCCCCCCCCCC(=O)O)NC(=O)[C@H]([C@@H](C)O)NC(=O)[C@H](C(C)C)NC(=O)[C@H](CC3CCCCC3)NC(=O)[C@H](Cc3cnc[nH]3)NC(=O)[C@@H](CC(C)C)NC(=O)[C@H](CCCN)NC(=O)[C@H](C(C)C)NC(=O)[C@H](Cc3ccc(-c4ccccc4)cc3)NC(=O)[C@H](C(C)C)NC2=O)c1 [Compound 1109] ({CH2CO}-[Dap]Y(Carboxymethyl)D[Phe(3-Me)]V[Bip]V[Orn][dL]H[Cha]VTC[Orn][Aun]-OH; thioether N-14)
4 | 33.5 nM | Cc1cccc(C[C@@H]2NC(=O)[C@H](CC(=O)O)NC(=O)[C@H](Cc3ccc(OCC(=O)O)cc3)NC(=O)[C@H](CN)NC(=O)CSC[C@@H](C(=O)N[C@@H](CCCN)C(=O)N[C@@H](CO)C(=O)NCCCCCCCCCCCC(=O)O)NC(=O)[C@H](C(C)O)NC(=O)[C@H](CCO)NC(=O)[C@H](CC3CCCCC3)NC(=O)[C@H](CCN)NC(=O)[C@@H](CC(C)C)NC(=O)[C@H](CCCN)NC(=O)[C@H](CCCNC(N)=O)NC(=O)[C@H](Cc3ccc(-c4ccccc4)cc3)NC(=O)[C@H](C(C)C)NC2=O)c1 (stereo partly drawn) [Compound 3587] ({CH2CO}-[Dap]Y(Carboxymethyl)D[Phe(3-Me)]V[Bip][Cit][Orn][dL][Dab][Cha][hSer][Thr(3ξ)]C[Orn]S[12Ado]-OH; thioether N-14)
5 | 15.3 nM | Cc1cccc(C[C@@H]2NC(=O)[C@H](CC(=O)O)NC(=O)[C@H](Cc3ccc(OCC(=O)O)cc3)NC(=O)[C@H](CN)NC(=O)CSC[C@@H](C(=O)NC3(C(=O)NCCCCCCCCCCC(=O)O)CC3)NC(=O)[C@H]([C@@H](C)O)NC(=O)[C@H](C(C)C)NC(=O)[C@H](CC3CCCCC3)NC(=O)[C@H](CCN)NC(=O)[C@@H](CC(C)C)NC(=O)[C@H](CCCN)NC(=O)[C@H](CCCNC(N)=O)NC(=O)[C@H](Cc3ccc(-c4ccccc4)cc3)NC(=O)[C@H](C(C)C)NC2=O)c1 [Compound 2010] ({CH2CO}-[Dap]Y(Carboxymethyl)D[Phe(3-Me)]V[Bip][Cit][Orn][dL][Dab][Cha]VTC[Ac3c][Aun]-OH; thioether N-14)
